target: T1, human parathyroid cell Ca^2+ receptor (hPCaR) (Homo sapiens, UniProt P41180); assay: [Ca2+]i measurement with fluo-3 in HEK 293 4.0-7 cells stably transfected with hPCaR; type: cell-based; conditions: fluo-3 fluorescence (485/530 nm), effect on [Ca^2+]i
T1 construct: expressed in transfected cells
T1 sequence (P41180 20-1078): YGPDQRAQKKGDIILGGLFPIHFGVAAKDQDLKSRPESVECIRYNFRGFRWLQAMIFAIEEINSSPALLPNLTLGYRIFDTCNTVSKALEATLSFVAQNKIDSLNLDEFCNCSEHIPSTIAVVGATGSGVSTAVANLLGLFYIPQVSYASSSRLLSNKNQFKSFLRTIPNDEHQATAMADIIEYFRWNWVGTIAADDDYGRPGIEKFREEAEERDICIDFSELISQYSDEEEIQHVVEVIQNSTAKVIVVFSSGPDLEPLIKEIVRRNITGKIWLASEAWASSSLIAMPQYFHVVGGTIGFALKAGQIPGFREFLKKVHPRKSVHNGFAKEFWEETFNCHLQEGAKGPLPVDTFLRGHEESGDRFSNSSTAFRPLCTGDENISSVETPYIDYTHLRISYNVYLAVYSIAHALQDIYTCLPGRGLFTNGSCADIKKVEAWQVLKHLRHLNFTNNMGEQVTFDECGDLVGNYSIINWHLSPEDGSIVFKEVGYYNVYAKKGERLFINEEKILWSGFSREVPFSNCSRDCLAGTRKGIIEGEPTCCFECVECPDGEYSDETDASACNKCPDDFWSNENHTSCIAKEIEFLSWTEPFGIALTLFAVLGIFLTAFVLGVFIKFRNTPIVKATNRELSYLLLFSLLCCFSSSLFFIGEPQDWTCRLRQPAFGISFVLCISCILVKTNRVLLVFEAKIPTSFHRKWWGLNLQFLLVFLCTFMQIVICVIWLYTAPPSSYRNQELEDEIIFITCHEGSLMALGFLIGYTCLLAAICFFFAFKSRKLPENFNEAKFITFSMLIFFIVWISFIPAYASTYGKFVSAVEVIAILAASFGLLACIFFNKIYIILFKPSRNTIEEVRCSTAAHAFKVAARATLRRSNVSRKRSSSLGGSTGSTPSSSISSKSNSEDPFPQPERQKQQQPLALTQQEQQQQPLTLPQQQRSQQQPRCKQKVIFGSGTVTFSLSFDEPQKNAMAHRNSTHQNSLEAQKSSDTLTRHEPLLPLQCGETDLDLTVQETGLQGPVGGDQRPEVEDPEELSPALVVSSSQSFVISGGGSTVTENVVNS
Method: The activities of the compounds of the present invention on calcium receptors were measured. In one embodiment, the measurement was performed in accordance with the method described in Example 4 of Nemeth et al., PCT/US95/13704 (International Publication No. WO96/12697) herein incorporated by reference.
A 4.0-kb NotI-HindIII fragment of the human parathyroid cell Ca^2+ receptor (hPCaR) cDNA was subcloned into the mammalian expression vector pCEP4 (Invitrogen) containing the hygromycin-resistant gene as a selectable marker. This plasmid was transfected into HEK 293 cells by calcium phosphate precipitation. Transfected cells were grown in Dulbecco's modified Eagle's medium containing 10% fetal bovine serum and hygromycin (200 μg/mL). Hygromycin-resistant colonies were subcloned and assayed for hPCaR mRNA by solution hybridization using a ^32P-labeled RNA probe complementary to the (4.0 kb) hPCaR sequence (Garrett, et al., J. Biol. Chem. 270, 12919-12925 (1995)). Clone 7 was used to assess the effects of compounds on [Ca^2+]i. This stably transfected cell line is termed HEK 293 4.0-7. For measurements of [Ca^2+]i, the cells were recovered from tissue culture flasks by brief treatment with 0.02% EDTA and then washed and resuspended in PCB containing 1 mM CaCl2 and 0.1% Bovine Serum Albumin (“BSA”). The cells were loaded with fluo-3 by incubation for 30 min at 37° C., with parathyroid cell buffer (126 mM NaCl, 4 mM KCl, 1 mM MgSO4, 0.7 mM K2HPO/KH2PO4, 20 mM HEPES.NaOH (pH 7.45)) containing 0.5% BSA in lmM CaCl2 and 2 μM fluo-3 acetoxymethyl ester. The cells were subsequently washed, each test compound was added to the cells and the fluorescence was recorded by using excitation and emission wavelengths of 485 and 530 nm, respectively.

SMILES | EC50 [µM]
COc1ccc(-c2cccc(CN[C@H](C)c3cccc4ccccc34)c2)nn1 [(1R)-N-((3-(6-(methyloxy)-3-pyridazinyl)phenyl)methyl)-1-(1-naphthalenyl)ethanamine] | ≤ 10
COc1ccc([C@@H](C)NCc2cccc(-c3ccc(OC)nn3)c2)cc1 [(1R)-1-(4-(methyloxy)phenyl)-N-((3-(6-(methyloxy)-3-pyridazinyl)phenyl)methyl)ethanamine] | ≤ 10
COc1ccc([C@@H](C)NCc2ccc(OC)c(-c3nccs3)c2)cc1 [(1R)-1-(4-(methyloxy)phenyl)-N-((4-(methyloxy)-3-(1,3-thiazol-2-yl)phenyl)methyl)ethanamine] | ≤ 10
COc1ccc(CN[C@H](C)c2ccc3ccccc3c2)cc1-c1ccc2[nH]ccc2c1 [(1R)-N-((3-(1H-indol-5-yl)-4-(methyloxy)phenyl)methyl)-1-(2-naphthalenyl)ethanamine] | ≤ 10
COc1cccc([C@@H](C)NCc2ccc(OC)c(-c3ccc(OC(F)(F)F)cc3)c2)c1 [(1R)-1-(3-(methyloxy)phenyl)-N-((6-(methyloxy)-4′-((trifluoromethyl)oxy)-1,1′-biphenyl-3-yl)methyl)ethanamine] | ≤ 10
C[C@@H](NCc1cccc(-c2ccc(C(F)(F)F)nc2)c1)c1cccc2ccccc12 [(1R)-1-(1-naphthalenyl)-N-((3-(6-(trifluoromethyl)-3-pyridinyl)phenyl)methyl)ethanamine] | ≤ 10
COc1cccc([C@@H](C)NCc2ccc(OC)c(-c3ccc4c(ccn4CC4CC4)c3)c2)c1 [(1R)-N-((3-(1-(cyclopropylmethyl)-1H-indol-5-yl)-4-(methyloxy)phenyl)methyl)-1-(3-(methyloxy)phenyl)ethanamine] | ≤ 10
COc1ccc(CN[C@H](C)c2cccc3ccccc23)cc1-c1ccc2nccn2c1 [(1R)-N-((3-imidazo[1,2-a]pyridin-6-yl-4-(methyloxy)phenyl)methyl)-1-(1-naphthalenyl)ethanamine] | ≤ 10
COc1ccc(CN[C@H](C)c2ccccc2)cc1-c1cnc2c(ccn2C)c1 [(1R)-N-((4-(methyloxy)-3-(1-methyl-1H-pyrrolo[2,3-b]pyridin-5-yl)phenyl)methyl)-1-phenylethanamine] | ≤ 10
Cc1ccc([C@@H](C)NCc2cccc(-c3ccccc3C)c2)cc1 [(1R)-N-((2′-methyl-1,1′-biphenyl-3-yl)methyl)-1-(4-methylphenyl)ethanamine] | ≤ 10
C[C@@H](NCc1ccc(OC(F)F)c(-c2cccnc2)c1)c1cccc2ccccc12 [(1R)-N-((4-((difluoromethyl)oxy)-3-(3-pyridinyl)phenyl)methyl)-1-(1-naphthalenyl)ethanamine] | ≤ 10
COc1ccc(CN[C@H](C)c2ccccc2)cc1-c1ccc(C(N)=O)cc1 [2′-(methyloxy)-5′-((((1R)-1-phenylethyl)amino)methyl)-1,1′-biphenyl-4-carboxamide] | ≤ 10
C[C@@H](NCc1cccc(-c2ccc(NC(=O)CCC(=O)O)nc2)c1)c1ccccc1 [4-oxo-4-((5-(3-((((1R)-1-phenylethyl)amino)methyl)phenyl)-2-pyridinyl)amino)butanoic acid] | ≤ 10
COc1ccc(CN[C@H](C)c2ccc(C)cc2)cc1-c1cncc(C(N)=O)c1 [5-(2-(methyloxy)-5-((((1R)-1-(4-methylphenyl)ethyl)amino)methyl)phenyl)-3-pyridinecarboxamide] | ≤ 10
COc1ccc(CN[C@H](C)c2cccc3ccccc23)cc1N1CCCC1 [(1R)-N-((4-(methyloxy)-3-(1-pyrrolidinyl)phenyl)methyl)-1-(1-naphthalenyl)ethanamine] | ≤ 10
COc1ccc(CN[C@H](C)c2ccccc2)cc1N1CCCC1 [(1R)-N-((4-(methyloxy)-3-(1-pyrrolidinyl)phenyl)methyl)-1-phenylethanamine] | ≤ 10
COc1ccc(CN[C@H](C)c2ccccc2)cc1-c1coc(C)n1 [(1R)-N-((3-(2-methyl-1,3-oxazol-4-yl)-4-(methyloxy)phenyl)methyl)-1-phenylethanamine] | ≤ 10
COc1ccc(CN[C@H](C)c2cccc3ccccc23)cc1-c1nc2ccccc2s1 [(1R)-N-((3-(1,3-benzothiazol-2-yl)-4-(methyloxy)phenyl)methyl)-1-(1-naphthalenyl)ethanamine] | ≤ 10
COc1ccc([C@@H](C)NCc2ccc(OC)c(-c3cncnc3)c2)cc1 [(1R)-1-(4-(methyloxy)phenyl)-N-((4-(methyloxy)-3-(5-pyrimidinyl)phenyl)methyl)ethanamine] | ≤ 10

More lines, now with the values ahead:

EC50 [µM] | SMILES
≤ 10 | C[C@@H](NCc1ccc(Cl)c(-c2ccc(OC(F)(F)F)cc2)c1)c1cccc2ccccc12 [(1R)-N-((6-chloro-4′-((trifluoromethyl)oxy)-1,1′-biphenyl-3-yl)methyl)-1-(1-naphthalenyl)ethanamine]
≤ 10 | COc1ccc(CN[C@H](C)c2cccc3ccccc23)cc1-c1ccc(OC(F)(F)F)cc1 [(1R)-N-((6-(methyloxy)-4′-((trifluoromethyl)oxy)-1,1′-biphenyl-3-yl)methyl)-1-(1-naphthalenyl)ethanamine]
≤ 10 | C[C@@H](NCc1ccc(C(F)(F)F)c(-c2ccc(C(F)(F)F)cc2)c1)c1ccccc1 [Example 314, (1R)-N-((4′,6-bis(trifluoromethyl)-1,1′-biphenyl-3-yl)methyl)-1-phenylethanamine]
≤ 10 | COc1ccc([C@@H](C)NCc2ccc(OC)c(-c3ccc(F)cc3)c2)cc1 [(1R)-N-((4′-fluoro-6-(methyloxy)-1,1′-biphenyl-3-yl)methyl)-1-(4-(methyloxy)phenyl)ethanamine]
≤ 10 | CC(=O)Nc1ccc(-c2cccc(CN[C@H](C)c3cccc4ccccc34)c2)cn1 [N-(5-(3-((((1R)-1-(1-naphthalenyl)ethyl)amino)methyl)phenyl)-2-pyridinyl)acetamide]
≤ 10 | COc1ccc(CN[C@H](C)c2ccccc2)cc1-c1ncccn1 [(1R)-N-((4-(methyloxy)-3-(2-pyrimidinyl)phenyl)methyl)-1-phenylethanamine]
≤ 10 | COc1ccc(CN[C@H](C)c2ccc(C)cc2)cc1-c1cncnc1 [(1R)-N-((4-(methyloxy)-3-(5-pyrimidinyl)phenyl)methyl)-1-(4-methylphenyl)ethanamine]
≤ 10 | COc1ccc(-c2cc(CN[C@H](C)c3ccccc3)ccc2NS(C)(=O)=O)cc1 [N-(4′-(methyloxy)-5-((((1R)-1-phenylethyl)amino)methyl)-1,1′-biphenyl-2-yl)methanesulfonamide]
≤ 10 | Cc1noc(-c2cccc(CN[C@H](C)c3ccccc3)c2)n1 [Example 453, (1R)-N-((3-(3-methyl-1,2,4-oxadiazol-5-yl)phenyl)methyl)-1-phenylethanamine]
≤ 10 | COc1ccc(CN[C@H](C)c2cccc3ccccc23)cc1-c1cccs1 [(1R)-N-((4-(methyloxy)-3-(2-thienyl)phenyl)methyl)-1-(1-naphthalenyl)ethanamine]
≤ 10 | CCOC(=O)N1CCC(c2cc(CN[C@H](C)c3ccccc3)ccc2OC)CC1 [ethyl 4-(2-(methyloxy)-5-((((1R)-1-phenylethyl)amino)methyl)phenyl)-1-piperidinecarboxylate]
≤ 10 | C[C@@H](NCc1ccc(Cl)c(-c2cccnc2)c1)c1cccc2ccccc12 [Example 435, (1R)-N-((4-chloro-3-(3-pyridinyl)phenyl)methyl)-1-(1-naphthalenyl)ethanamine]

From patent US6908935B2, “Calcium receptor modulating agents” (Amgen Inc., priority 2002, dated 2005)
